Experimental data reported in PubChem BioAssay (NCI).
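48-hour exposure; five concentrations; linearly interpolated endpoints. The concentration for full growth arrest is given as TGI.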

Tests used:
Test in all cases: NCI anticancer screen, dose series, 48 h
SK-OV-3 ovarian = system: SK-OV-3 ovarian
OVCAR-8 ovarian = system: OVCAR-8 ovarian
NCI-H23 lung = system: NCI-H23 lung
SN12C renal = system: SN12C renal
SF-295 CNS = system: SF-295 CNS
KM12 colon = system: KM12 colon
SF-539 CNS = system: SF-539 CNS
SW-620 colon = system: SW-620 colon
BT-549 breast = system: BT-549 breast
HS 578T breast = system: HS 578T breast
NCI-H226 lung = system: NCI-H226 lung
786-0 renal = system: 786-0 renal
NCI-H460 lung = system: NCI-H460 lung

Row | Compound | TGI (SK-OV-3 ovarian) | TGI (OVCAR-8 ovarian) | TGI (NCI-H23 lung) | TGI (SN12C renal) | TGI (SF-295 CNS) | TGI (KM12 colon) | TGI (SF-539 CNS) | TGI (SW-620 colon) | TGI (BT-549 breast) | TGI (HS 578T breast) | TGI (NCI-H226 lung) | TGI (786-0 renal) | TGI (NCI-H460 lung)
1 | Cc1[nH]n(-c2ccccc2)c(=S)c1C(=O)c1ccccc1 | > 100 µM | > 100 µM | > 100 µM | 45.1 µM | > 100 µM | > 100 µM | > 100 µM | > 100 µM | – | – | – | – | –
2 | O=C(c1nsc(Cl)c1Cl)N1CCCCC1 | > 100 µM | > 100 µM | > 100 µM | > 100 µM | > 100 µM | > 100 µM | > 100 µM | > 100 µM | > 100 µM | > 100 µM | > 100 µM | > 100 µM | –
3 | Cc1ccc(N2C(=O)/C(=c3\s/c(=C(/N)O)c(=N)n3-c3ccccc3)SC2=S)cc1 | > 100 µM | > 100 µM | > 100 µM | – | > 100 µM | > 100 µM | > 100 µM | > 100 µM | – | – | > 100 µM | – | > 100 µM
4 | CC(=O)CN=C(C)NNc1ccc([N+](=O)[O-])cc1[N+](=O)[O-] | > 100 µM | > 100 µM | > 100 µM | > 100 µM | > 100 µM | – | > 100 µM | > 100 µM | – | > 100 µM | > 100 µM | > 100 µM | > 100 µM
5 | COc1cc(CNC(=O)CCCCCCCC/C=C/Br)ccc1O | > 10 µM | > 10 µM | > 10 µM | > 10 µM | > 10 µM | > 10 µM | > 10 µM | > 10 µM | – | > 10 µM | > 10 µM | > 10 µM | > 10 µM
6 | COc1cc(Cn2c3c(c4cc(O)ccc42)C(=O)c2ccccc2C3=O)cc(OC)c1 | 6.68 µM | 19.1 µM | 32.2 µM | 42.2 µM | 23.6 µM | 54.8 µM | 7.38 µM | > 100 µM | 4.86 µM | > 100 µM | – | 10.2 µM | 32.9 µM
7 | COC(=O)[C@]1(c2cc3ccccc3n2S(=O)(=O)c2ccccc2)CC2CCC1NC2 (stereo not given in full) | 32.8 µM | 32.3 µM | 40.1 µM | 29.4 µM | 31.2 µM | 28.3 µM | 32.2 µM | 31.3 µM | 32.9 µM | – | 33.2 µM | 27.3 µM | 26.9 µM
8 | Cc1c(-c2ccccc2)n(C)c2cn[nH]c(=O)c12 | 61.2 µM | > 100 µM | > 100 µM | – | 65.1 µM | > 100 µM | > 100 µM | > 100 µM | > 100 µM | > 100 µM | – | 62.5 µM | > 100 µM
9 | Cc1ccc2c(c1)NC(=O)C(N=[N+]=[N-])(c1ccccc1)C2=O (stereo not given) | 84.3 µM | 58.7 µM | 45.9 µM | 48.2 µM | 78.1 µM | 40 µM | 81.5 µM | > 100 µM | – | – | – | > 100 µM | > 100 µM
10 | C(/COc1cccnc1)=N\NC1=NCCN1 | > 100 µM | > 100 µM | > 100 µM | > 100 µM | > 100 µM | > 100 µM | > 100 µM | > 100 µM | – | – | > 100 µM | > 100 µM | > 100 µM
11 | O=[N+]([O-])C(=C1Nc2ccccc2N1)C(Cl)=C(Cl)Cl | > 100 µM | > 100 µM | > 100 µM | > 100 µM | > 100 µM | > 100 µM | > 100 µM | > 100 µM | – | > 100 µM | > 100 µM | > 100 µM | > 100 µM
12 | COC(=O)C(Cc1ccccc1)NS(=O)(=O)c1ccc(-c2c3nc(c(-c4ccc(S(=O)(=O)NC(Cc5ccccc5)C(=O)OC)cc4)c4ccc([nH]4)c(-c4ccc(S(=O)(=O)NC(Cc5ccccc5)C(=O)OC)cc4)c4nc(c(-c5ccc(S(=O)(=O)NC(Cc6ccccc6)C(=O)OC)cc5)c5ccc2[nH]5)C=C4)C=C3)cc1 (stereo not given) | > 100 µM | > 100 µM | > 100 µM | > 100 µM | > 100 µM | > 100 µM | > 100 µM | > 100 µM | > 100 µM | 62 µM | – | > 100 µM | > 100 µM
13 | CC(C)CCNC(=O)c1ccc(CNC(=O)/C=C/c2ccc(-c3ccccc3[N+](=O)[O-])o2)cc1 | > 100 µM | > 100 µM | > 100 µM | > 100 µM | > 100 µM | > 100 µM | – | > 100 µM | – | – | 62.9 µM | > 100 µM | > 100 µM
14 | CCCCc1ccc(Nc2nc(Cl)c3[nH]cnc3n2)cc1 | 99.8 µM | 37.3 µM | 33.9 µM | 49.9 µM | 34.6 µM | 32 µM | 32.7 µM | 37.4 µM | 65.4 µM | 50.5 µM | > 100 µM | 29.1 µM | –
15 | Cc1sc(N=Nc2c(O)[nH]c3ccccc23)nc1-c1ccccc1 | 33.6 µM | 40.2 µM | 34.6 µM | 34.9 µM | 29.1 µM | 43.7 µM | 37.5 µM | 71.4 µM | 41.5 µM | – | > 100 µM | 36.6 µM | 42.2 µM
16 | CN1c2ccccc2C2c3c(O)ccc(O)c3C=C([N+](=O)[O-])C21 (stereo not given) | 13.5 µM | – | 5.61 µM | – | 8.29 µM | 1.82 µM | 4.45 µM | – | 13.6 µM | – | > 92.9 µM | 2.13 µM | 6.02 µM
17 | Cn1cc(-c2ccc(CCOC3CCCCO3)cc2)c2c(C#N)cccc21 (stereo not given) | > 100 µM | > 100 µM | > 100 µM | > 100 µM | > 100 µM | > 100 µM | > 100 µM | > 100 µM | > 100 µM | > 100 µM | – | > 100 µM | > 100 µM
18 | Cc1cc2c3c(ccc4ncc(c43)CN2c2ccc(NS(C)(=O)=O)cc2)[nH]1 | 97.5 µM | > 100 µM | > 100 µM | – | > 100 µM | > 100 µM | – | > 100 µM | > 100 µM | > 100 µM | 78.3 µM | 23.5 µM | > 100 µM
19 | CC(C)(C)OC(=O)C(C1NC(C(=O)O)C(C)(C)S1)N1C(=O)c2ccccc2C1=O (stereo not given) | > 100 µM | > 100 µM | > 100 µM | > 100 µM | > 100 µM | > 100 µM | > 100 µM | > 100 µM | > 100 µM | > 100 µM | – | > 100 µM | > 100 µM
